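The compound was tested at five concentrations on cells cultured in 96-well plates, with a 48-hour exposure period. The concentration for 50% growth inhibition is given as GI50.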 The source made the active and inactive calls. No stated cut-off is given here; in the data, active = GI50 up to about 1.1 µM and inactive = higher.
Tests used:
Assay in all cases: growth of human tumour cells (NCI), 48 h
[1] = test system: SK-MEL-28
[2] = test system: A498
[3] = test system: HCT-15
[4] = test system: HOP-62
[5] = test system: LOX IMVI
[6] = test system: OVCAR-3
[7] = test system: SF-295
[8] = test system: CCRF-CEM
[9] = test system: NCI-H23
[10] = test system: OVCAR-5
[11] = test system: SK-MEL-5
[12] = test system: SF-539
[13] = test system: EKVX
[14] = test system: HCT-116
[15] = test system: UACC-257
[16] = test system: HOP-92
[17] = test system: SW-620
[18] = test system: T47D
[19] = test system: KM12
[20] = test system: MOLT-4

Measured: GI50

CCOC(=O)NC
> 100 µM: [3]
inactive: [1] > 100 µM | [2] > 100 µM | [4] > 100 µM | [5] > 100 µM | [6] > 100 µM | [7] > 100 µM | [8] > 100 µM | [9] > 100 µM | [10] > 100 µM | [11] > 100 µM | [12] > 100 µM | [13] > 100 µM | [14] > 100 µM | [15] > 100 µM | [16] > 100 µM | [17] > 100 µM | [18] > 100 µM | [19] > 100 µM

N=C(CC/C(N)=N/O)NO
inactive: [1] > 100 µM | [2] > 100 µM | [4] > 100 µM | [5] > 100 µM | [20] > 100 µM | [6] > 100 µM | [7] > 100 µM | [9] > 100 µM | [10] > 100 µM | [11] > 100 µM | [13] > 100 µM | [14] > 100 µM | [15] > 100 µM | [16] > 100 µM | [17] > 100 µM | [18] > 100 µM | [19] > 100 µM
> 100 µM: [3]

C/C(=C\CO)CC[C@@H]1[C@@]2(C)CCCC(C)(C)[C@@H]2CC[C@@]1(C)O
inactive: [1] 22.3 µM | [2] 17 µM | [5] 16.1 µM | [20] 51.8 µM | [6] 13.9 µM | [7] 17.6 µM | [8] 20.4 µM | [9] 20.5 µM | [10] 23.1 µM | [11] 17.9 µM | [12] 18.1 µM | [13] 24.8 µM | [14] 22 µM | [15] 19.5 µM | [16] 16.7 µM | [17] 22.7 µM | [18] 18.2 µM | [19] 19.2 µM
17.3 µM: [3]

NC(=O)c1sc2nc3ccccc3n2c1N
> 100 µM: [3]
inactive: [1] > 100 µM | [2] 63.1 µM | [4] 32.8 µM | [5] 36.1 µM | [20] > 100 µM | [6] > 100 µM | [7] 23.8 µM | [8] > 100 µM | [9] 17.4 µM | [10] > 100 µM | [11] > 100 µM | [12] 21.5 µM | [13] 67.5 µM | [14] 74.1 µM | [15] > 100 µM | [16] 69.8 µM | [17] > 100 µM | [18] > 100 µM

CN(C)/C=N\c1cccc2cnccc12
> 100 µM: [3]
inactive: [1] > 100 µM | [2] > 100 µM | [4] > 100 µM | [5] > 100 µM | [20] > 100 µM | [6] 43.2 µM | [7] > 100 µM | [8] > 100 µM | [9] > 100 µM | [10] > 100 µM | [11] > 100 µM | [12] > 100 µM | [13] > 100 µM | [14] > 100 µM | [15] > 100 µM | [16] > 100 µM | [18] > 100 µM

COc1ccc(C2OCCN2C)cc1 (centres undefined)
> 100 µM: [3]
inactive: [2] > 100 µM | [4] > 100 µM | [5] 58.2 µM | [20] > 100 µM | [6] > 100 µM | [7] > 100 µM | [8] > 100 µM | [9] > 100 µM | [10] > 100 µM | [11] > 100 µM | [12] > 100 µM | [13] > 100 µM | [14] > 100 µM | [15] > 100 µM | [16] > 100 µM | [17] > 100 µM | [18] > 100 µM | [19] > 100 µM

Cc1cc2c(cc1Cl)S(=O)(=O)OC(c1ccc([N+](=O)[O-])cc1)=N2
inactive: [1] > 100 µM | [2] > 100 µM | [4] > 100 µM | [5] > 100 µM | [20] > 100 µM | [6] > 100 µM | [7] > 100 µM | [8] > 100 µM | [11] > 100 µM | [12] > 100 µM | [13] > 100 µM | [14] > 100 µM | [15] > 100 µM | [16] > 100 µM | [17] > 100 µM | [18] > 100 µM | [19] > 100 µM
> 100 µM: [3]

C#CCOC(=O)C(N)CSSCC(N)C(=O)O (centres undefined)
inactive: [1] > 100 µM | [2] > 100 µM | [4] > 100 µM | [5] 65.9 µM | [20] > 100 µM | [8] > 100 µM | [9] > 100 µM | [10] > 100 µM | [11] > 100 µM | [12] > 100 µM | [13] > 100 µM | [14] > 100 µM | [15] > 100 µM | [16] > 100 µM | [17] > 100 µM | [18] > 100 µM | [19] > 100 µM
> 100 µM: [3]

O=C1C=C(O)C(=O)c2c(O)ccc(O)c21
> 100 µM: [3]
inactive: [1] > 100 µM | [2] > 100 µM | [4] > 100 µM | [5] > 100 µM | [20] > 100 µM | [6] > 100 µM | [7] > 100 µM | [8] > 100 µM | [9] > 100 µM | [10] > 100 µM | [11] > 100 µM | [12] > 100 µM | [14] > 100 µM | [15] > 100 µM | [16] > 100 µM | [17] > 100 µM | [18] > 100 µM | [19] > 100 µM

COC1=C2CC(C)CC(OC)C(OC(=O)CCCN)C(C)/C=C(\C)C(OC(N)=O)C(OC)/C=C\C=C(/C)C(=O)NC(=CC1=O)C2=O (centres undefined)
4.97 µM: [3]
active: [20] 0.815 µM | [8] 0.766 µM | [17] 0.873 µM | [18] 1.09 µM
inactive: [1] 8.61 µM | [2] 16.4 µM | [4] 17.3 µM | [5] 2.64 µM | [6] 3.2 µM | [7] 16.9 µM | [9] 3.65 µM | [10] 10.2 µM | [11] 9.14 µM | [12] 6.71 µM | [13] 13.2 µM | [14] 3.98 µM | [15] 5.64 µM | [16] 4.23 µM | [19] 10.3 µM

O=c1c2cc(Cl)cc(Cl)c2oc2nc3n(c(=O)c12)CCCS3
inactive: [1] > 100 µM | [2] > 100 µM | [4] > 100 µM | [20] 57.8 µM | [6] 95.9 µM | [7] > 100 µM | [8] 92.5 µM | [9] > 100 µM | [10] > 100 µM | [11] > 100 µM | [12] > 100 µM | [13] > 100 µM | [14] > 100 µM | [15] > 100 µM | [16] > 100 µM | [17] > 100 µM | [18] 57.1 µM | [19] > 100 µM
> 100 µM: [3]

COc1ccc(OC)c(C2CCc3c(cnc4nc(N)nc(N)c34)C2)c1 (centres undefined)
inactive: [1] 13.7 µM | [2] 12.3 µM | [4] 12.2 µM | [5] 1.32 µM | [20] 2.49 µM | [6] 15.5 µM | [7] 7.23 µM | [10] 4.7 µM | [11] 11 µM | [12] 22.8 µM | [13] 1.58 µM | [14] 1.83 µM | [15] 4.28 µM | [16] 13.2 µM | [17] 10.1 µM | [18] 20.7 µM | [19] 11.4 µM
5.42 µM: [3]

[O-][S+](c1ccccc1)C1CC2CC3(CCC21O)OCCO3 (centres undefined)
inactive: [1] > 100 µM | [2] > 100 µM | [4] > 100 µM | [5] > 100 µM | [20] > 100 µM | [6] > 100 µM | [7] > 100 µM | [8] > 100 µM | [9] > 100 µM | [10] > 100 µM | [11] > 100 µM | [13] > 100 µM | [15] > 100 µM | [16] > 100 µM | [17] > 100 µM | [18] > 100 µM | [19] > 100 µM
> 100 µM: [3]

CN(C)CCNC(=O)c1ccc(NC(=O)c2nc([N+](=O)[O-])cn2C)cc1
> 100 µM: [3]
inactive: [1] > 100 µM | [2] > 100 µM | [4] > 100 µM | [5] > 100 µM | [20] > 100 µM | [6] > 100 µM | [7] > 100 µM | [8] > 100 µM | [9] > 100 µM | [10] > 100 µM | [11] > 100 µM | [12] > 100 µM | [14] > 100 µM | [15] > 100 µM | [16] > 100 µM | [17] > 100 µM | [18] > 100 µM | [19] > 100 µM

Cc1cc(S(=O)(=O)Nc2nc3ccccc3nc2-c2ccc(Cl)cc2)c(S)cc1Cl
inactive: [1] 16.8 µM | [2] 16.3 µM | [4] 22.4 µM | [20] 13.8 µM | [6] 16.3 µM | [7] 18.9 µM | [8] 21.7 µM | [9] 18.5 µM | [10] 19.6 µM | [11] 14 µM | [12] 19.9 µM | [13] 15.7 µM | [14] 19.4 µM | [15] 21.7 µM | [16] 20.4 µM | [18] 14.5 µM | [19] 17.2 µM
20.1 µM: [3]

Reference: ChEMBL document CHEMBL1201862, “PubChem BioAssay data set” (2004)
